Experimental data: patent US8501713B2, “Drug combinations for the treatment of duchenne muscular dystrophy” (Summit Corporation PLC, priority 2007, dated 2013)

Test system: Utrophin A promoter linked to a luciferase reporter gene
Test: Luciferase reporter assay (murine H2K cells)
Type: cell-based
Details: for activity at 10 µM: Mus musculus, H2K mdx, read-out: Activity
Method in brief: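 Immortalized mdx mouse H2K myoblasts stably carrying a ~5 kb utrophin A promoter–luciferase construct, kept at 33° C, 10% CO2. After 24 hrs plating, compound added at 10 μM final for 48 hrs; luciferase light output read after in-situ lysis.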

[1] = luciferase level relative to control, H2K/mdx/Utro A reporter cells, compound 10 μM final concentration
[2] = luciferase reporter assay in murine H2K cells, classified relative to control

SMILES	activity at 10 µM [1]	also measured
FC(F)(F)Oc1ccc2oc(-c3ccc4ccccc4c3)nc2c1 [Example 448, 2-(Naphthalen-2-yl)-5-(trifluoromethoxy)benzo[d]oxazole]	> 401%	–
Cc1nc(Nc2nc3ccccc3o2)nc2c1CCC2 [Example 678]	–	Activity [2]: ++ (Between 201% and 300% relative to control)
CCCC(=O)Nc1ccc2oc(-c3ccc(N(CC)CC)cc3)nc2c1 [Example 76, N-(2-(4-(diethylamino)phenyl)benzo[d]oxazol-5-yl)butyramide]	< 200%	–
CCN(CC)c1ccc(-c2nc3cc(Cl)ccc3o2)cc1 [Example 131, 4-(5-chlorobenzo[d]oxazol-2-yl)-N,N-diethylaniline]	301 to 400%	–
CCCC(=O)Nc1ccc2oc(C3CCCCC3)nc2c1 [Example 249, N-(2-cyclohexylbenzo[d]oxazol-5-yl)butyramide]	< 200%	–
c1ccc(-c2nc3ccccc3o2)nc1 [Example 147, 2-(pyridin-2-yl)benzo[d]oxazole]	< 200%	–
CC(=O)Nc1ccc(-c2nc3cc(-c4ccc(Cl)cc4)ccc3o2)cc1 [Example 372, N-(4-(5-(4-chlorophenyl)benzo[d]oxazol-2-yl)phenyl)acetamide]	< 200%	–
Cn1c(COc2ccccc2)nc2ccccc21 [Example 474]	–	Activity [2]: + (Up to 200% relative to control)
CCS(=O)(=O)c1ccc2oc(-c3ccc4ccccc4n3)nc2c1 [Example 422, 5-(ethylsulfonyl)-2-(quinolin-2-yl)benzo[d]oxazole]	> 401%	–
O=C(Nc1ccc2oc(-c3cccnc3)nc2c1)c1ccccc1 [Example 39, N-(2-(pyridin-3-yl)benzo[d]oxazol-5-yl)benzamide]	< 200%	–
CC(C)C(=O)Nc1cc2oc(-c3ccc(Cl)cc3)nc2cc1Cl [Example 347, N-(5-chloro-2-(4-chlorophenyl)benzo[d]oxazol-6-yl)isobutyramide]	201 to 300%	–
CC(C)C(=O)Nc1ccc2oc(-c3ccc(C4CCCCC4)cc3)nc2c1 [Example 430, N-(2-(4-cyclohexylphenyl)benzo[d]oxazol-5-yl)isobutyramide]	< 200%	–
CC(C)C(=O)Nc1ccc2sc(-c3ccccc3)nc2c1 [Example 267, N-(2-phenylbenzo[d]thiazol-5-yl)isobutyramide]	> 401%	–
CC(C)C(=O)Nc1ccc2oc(-c3cnc4ccccc4c3)nc2c1 [Example 415, N-(2-(quinolin-3-yl)benzo[d]oxazol-5-yl)isobutyramide]	> 401%	–
CCCS(=O)(=O)c1ccc2oc(-c3ccc(Cl)cc3)nc2c1 [Example 578]	–	Activity [2]: + (Up to 200% relative to control)
Cc1ccc(-c2nc3ccccc3s2)cc1N [Example 479]	–	Activity [2]: ++ (Between 201% and 300% relative to control)
O=C(Nc1ccc2oc(-c3ccc4ccccc4c3)nc2c1)c1cccs1 [Example 385, N-(2-(naphthalen-2-yl)benzo[d]oxazol-5-yl)thiophene-2-carboxamide]	< 200%	–
COc1ccc(OCc2nc3ccccc3[nH]2)cc1 [Example 4, 2-((4-methoxyphenoxy)methyl)-1H-benzo[d]imidazole]	201 to 300%	–
CCC(=O)Nc1ccc2oc(-c3cccnc3)nc2c1 [Example 53, N-(2-(pyridin-3-yl)benzo[d]oxazol-5-yl)propionamide]	< 200%	–

SMILES	activity at 10 µM [1]	also measured
CC(=O)Nc1cccc(-c2nc3ccccc3s2)c1 [Example 513]	–	Activity [2]: + (Up to 200% relative to control)
O=[N+]([O-])c1ccc2oc(-c3ccc(F)cc3)nc2c1 [Example 525]	–	Activity [2]: + (Up to 200% relative to control)
CCC(C)C(=O)Nc1ccc(-c2nc3ccccc3[nH]2)cc1 (centres unmarked) [Example 631]	–	Activity [2]: ++++ (Above 401% relative to control)
CCS(=O)(=O)c1ccc2oc(S)nc2c1 [Example 574]	–	Activity [2]: + (Up to 200% relative to control)
Nc1ccc2oc(-c3ccc(Cl)c(Cl)c3)nc2c1 [Example 480]	–	Activity [2]: ++ (Between 201% and 300% relative to control)
CC(C)C(=O)Nc1ccc2oc(-c3ccc(Cl)cc3F)nc2c1 [Example 343, N-(2-(4-chloro-2-fluorophenyl)benzo[d]oxazol-5-yl)isobutyramide]	> 401%	–
CCN(CC)c1ccc(-c2nc3cc(NC(=O)c4ccc(F)cc4)ccc3o2)cc1 [Example 71, N-(2-(4-(diethylamino)phenyl)benzo[d]oxazol-5-yl)-4-fluorobenzamide]	< 200%	–
Cc1ccc2nc(-c3ccc(O)cc3)sc2c1 [Example 643]	–	Activity [2]: +++ (Between 301% and 400% relative to control)
CCSc1nc2ccc(N)cc2s1 [Example 563]	–	Activity [2]: ++ (Between 201% and 300% relative to control)
CCC(=O)c1ccc2oc(-c3ccc(Cl)cc3)nc2c1 [Example 417, 1-(2-(4-chlorophenyl)benzo[d]oxazol-5-yl)propan-1-one]	> 401%	–
Cc1ccccc1-c1nc2cc(NC(=O)C(C)C)ccc2o1 [Example 226, N-(2-o-tolylbenzo[d]oxazol-5-yl)isobutyramide]	> 401%	–
Nc1ccc2oc(-c3cccc(F)c3)nc2c1 [Example 232, 2-(3-fluorophenyl)benzo[d]oxazol-5-amine]	> 401%	–
COc1cccc(-c2ccc3oc(-c4ccc(Cl)cc4)nc3c2)n1 [Example 327, 2-(4-chlorophenyl)-5-(6-methoxypyridin-2-yl)benzo[d]oxazole]	< 200%	–
C(=C\c1nc2ccccc2[nH]1)/c1ccccc1 [Example 547]	–	Activity [2]: +++ (Between 301% and 400% relative to control)
Cc1cc2nc(-c3cc(N)ccc3Cl)oc2cc1C [Example 646]	–	Activity [2]: +++ (Between 301% and 400% relative to control)
CCN(CC)c1ccc(-c2nc3cc(NC(=O)c4ccc(C(F)(F)F)cc4)ccc3o2)cc1 [Example 69, N-(2-(4-(diethylamino)phenyl)benzo[d]oxazol-5-yl)-4-(trifluoromethyl)benzamide]	< 200%	–
CCN(CC)S(=O)(=O)c1ccc2oc(-c3ccc(Cl)cc3)nc2c1 [Example 439, 2-(4′-chlorophenyl)-5-(N,N-diethylsulfonamidyl)-benzoxazole]	–	Activity [1]: + (Up to 200% relative to control)
Cc1ccc(-c2nc3cc(NC(=O)CC(F)(F)F)ccc3o2)cc1 [Example 254, 3,3,3-trifluoro-N-(2-p-tolylbenzo[d]oxazol-5-yl)propanamide]	201 to 300%	–
Cc1ccc(-c2nc3cc(NC(=O)CCC(F)(F)F)ccc3o2)cc1 [Example 233, 4,4,4-trifluoro-N-(2-p-tolylbenzo[d]oxazol-5-yl)butanamide]	< 200%	–

SMILES	activity at 10 µM [1]	also measured
O=[N+]([O-])c1ccc2oc(-c3cccs3)nc2c1 [Example 388, 5-nitro-2-(thiophen-2-yl)benzo[d]oxazole]	< 200%	–
CCCC(=O)Nc1cccc2oc(-c3ccc(C)cc3)nc12 [Example 235, N-(2-p-tolylbenzo[d]oxazol-4-yl)butyramide]	< 200%	–
Nc1ccc(-c2nc3ccccc3s2)cc1 [Example 601]	–	Activity [2]: +++ (Between 301% and 400% relative to control)
Nc1ccc(C(=O)Nc2ccc(-c3nc4cc(Br)ccc4o3)cc2)cc1 [Example 337, 4-amino-N-(4-(5-bromobenzo[d]oxazol-2-yl)phenyl)benzamide]	< 200%	–
CCCC(=O)Nc1ccc2oc(-c3cccc(C)c3)nc2c1 [Example 200, N-(2-m-tolylbenzo[d]oxazol-5-yl)butyramide]	> 401%	–
Nc1ccc2oc(-c3ccc(OC(F)(F)F)cc3)nc2c1 [Example 350, 2-(4-(trifluoromethoxy)phenyl)benzo[d]oxazol-5-amine]	201 to 300%	–
CC(C)C(=O)Nc1ccc2oc(-c3ccc(C(F)(F)F)cc3)nc2c1 [Example 127, N-(2-(4-(trifluoromethyl)phenyl)benzo[d]oxazol-5-yl)isobutyramide]	< 200%	–
Cc1ccc(-c2nc3cc(NC(=O)c4ccncc4)ccc3o2)cc1 [Example 114, N-(2-p-tolylbenzo[d]oxazol-5-yl)isonicotinamide]	< 200%	–
CCCS(=O)(=O)Nc1ccc2oc(-c3ccc(Cl)cc3)nc2c1 [Example 260, N-(2-(4-chlorophenyl)benzo[d]oxazol-5-yl)propane-1-sulfonamide]	< 200%	–
O=C(Nc1ccccc1-c1nc2ccccc2[nH]1)c1ccc(Cl)cc1Cl [Example 500]	–	Activity [2]: + (Up to 200% relative to control)
CC(C)C(=O)Nc1ccc2oc(C3CCCC3)nc2c1 [Example 364, N-(2-cyclopentylbenzo[d]oxazol-5-yl)isobutyramide]	< 200%	–
O=C(Nc1ccc2oc(-c3ccccc3)nc2c1)c1ccc(-c2ccccc2)cc1 [Example 32, N-(2-phenylbenzo[d]oxazol-5-yl)biphenyl-4-carboxamide]	< 200%	–
CCSc1cccc(-c2ccc3oc(-c4ccc(Cl)cc4)nc3c2)c1 [Example 292, 2-(4-chlorophenyl)-5-(3-(ethylthio)phenyl)benzo[d]oxazole]	201 to 300%	–
Nc1ccc(-c2nc3ccc(Cl)cc3o2)cc1 [Example 290, 4-(6-chlorobenzo[d]oxazol-2-yl)aniline]	301 to 400%	–
CCS(=O)(=O)c1ccc2oc(-c3ccc4cc(F)ccc4c3)nc2c1 [Example 431, 5-(ethylsulfonyl)-2-(6-fluoronaphthalen-2-yl)benzo[d]oxazole]	< 200%	–
COC(=O)c1ccc(-c2ccc3oc(-c4ccc(Cl)cc4)nc3c2)cc1 [Example 287, methyl 4-(2-(4-chlorophenyl)benzo[d]oxazol-5-yl)benzoate]	< 200%	–
O=[N+]([O-])c1cc(-c2nc3ccccc3s2)ccc1Cl [Example 523]	–	Activity [2]: + (Up to 200% relative to control)
O=C(Nc1ccc2oc(-c3cccnc3)nc2c1)c1ccc(Cl)cc1 [Example 40, 4-chloro-N-(2-(pyridin-3-yl)benzo[d]oxazol-5-yl)benzamide]	< 200%	–
